In patent publication US20120321594A1, “METHODS OF CONTROLLING AXON OR DENDRITE DEVELOPMENT OF NEURONAL CELLS” (NEW YORK UNIVERSITY, priority 2011, published 2012):
Like-named read-outs stand apart in the source and are kept apart here.

Experiments:
[1] = tested on: Cav2.3 channels; assay: Whole-cell Ca^2+ currents at growth cones of cultured xSCINs, isolated Cav2.3 (R-type) currents; format: cell-based, Xenopus laevis
Description: To test the conversion of the identities of individual neurites and for growth cone electrophysiology, 2,000 U/ml Sema3A (in micropipettes) was applied as a gradient. […] All pharmacological agents were bath-applied 30 min before experiments were performed unless otherwise indicated.

[2] = tested on: xCav2.3α1E; assay: Whole-mount immunostaining of xCav2.3α1E expression in spinal cords; format: in vivo, Xenopus laevis
[3] = tested on: Cav2.3α1E; assay: Cav2.3α1E immunoreactivity in cultured xSCINs; format: cell-based, Xenopus laevis; details: pre-treatment with the agent
Description: Sema3A and +CHX, respectively, indicate treatment with Sema3A (2 U·ml−1) for 10 min or with Sema3A (2 U·ml−1) for 10 min after a one-minute pre-administration of cycloheximide (25 μM). FIG. 16B is a graph showing a summary of Cav2.3α1E immunoreactivity (IR, AU) in each experimental condition. […] FIGS. 16D and 16E are immunofluorescence images (FIG. 16D) and summaries (FIG. 16E) of Cav2.3α1E IR in Xenopus spinal cords either without (Control) or with (+CHX) local injection of cycloheximide (2.5 mM). Cav2.3α1E IR was normalized against that of control animals. For uninjected controls, the right sides of spinal cords were normalized against the left sides. Scale bars, 20 μm; data are mean±s.e.m; (n) =number of cultures (150 to 200 neurons, FIG. 16B) spinal cords examined (FIG. 16E). Significant difference from the control is indicated (**p<0.01). […]

[4] = tested on: cultured xSCINs; assay: Neurite identity (tau-1 / MAP2 immunocytochemistry) of cultured xSCINs; format: cell-based, Xenopus laevis
Description: Capped messenger RNAs encoding NP1-0111, hSema3A, mCav2.3α1E, and green fluorescent protein (GFP) were synthesized with mMESSAGE mMACHINE (Ambion Inc.) and purified on NucAway™ Spin Columns (Ambion Inc.) as described by the manufacturer. […] Each blastomere was injected with 4 to 8 nl of 0.5 μg·ul^−1 NPI-0111, 0.5 μg·μl^−1 hSema3A, or 0.5 μg·μl^−mCav2.3α1E mRNA and 0.25 μg·μl^−1 GFP mRNA as an expression indicator. Primary Xenopus spinal neurons derived from developmental stage 26 embryos were cultured at 23° C.-25° C. for 16-20 hours and used for growth cone electrophysiology (FIGS. 2A-2E; FIGS. 3A-3C) and immunocytochemistry (FIGS. 4A and 4B). To examine the neurite identity and expression of functional AMPA receptor channels (FIGS. 5A-5C), cells were plated on cover glasses that had been coated for four to six hours each with poly-L-lysine (100 μg·ml^−1) and laminin (80 μg·ml^−1) and incubated for three to four hours at 23° C.-25° C. prior to use.
Sema3A (2 U·ml^−1) and netrin-1 (5 ng·ml^−1) were prepared as described (Nishiyama et al., “Membrane Potential Shifts Caused by Diffusible Guidance Signals Direct Growth-Cone Turning,” Nat. Neurosci. 11:762-771 (2008); Togashi et al., “Cyclic GMP-Gated CNG Channels Function in Sema3A-Induced Growth Cone Repulsion,” Neuron 58:694-707 (2008); Goshima, “A Novel Action of Collapsin: Collapsin-1 Increases Antero- and Retrograde Axoplasmic Transport Independently of Growth Cone Collapse,” J. Neurobiol. 33:316-328 (1997); Hong et al., “Calcium Signalling in the Guidance of Nerve Growth by Netrin-1,” Nature 403:93-98 (2000); Nishiyama et al., “Cyclic AMP/GMP-Dependent Modulation of Ca^2+ Channels Sets the Polarity of Nerve Growth-Cone Turning,” Nature 423:990-995 (2003); Hong et al., “A Ligand-Gated Association Between Cytoplasmic Domains of UNC5 and DCC Family Receptors Converts Netrin-Induced Growth Cone Attraction to Repulsion,” Cell 97:927-941 (1999), which are hereby incorporated by reference in their entirety). To test the conversion of the identities of individual neurites and for growth cone electrophysiology, 2,000 U/ml Sema3A (in micropipettes) was applied as a gradient. The biological activity of Sema3A (U·ml^−1) was evaluated using a collapse assay of chick DRG neurons (Goshima, “A Novel Action of Collapsin: Collapsin-1 Increases Antero- and Retrograde Axoplasmic Transport Independently of Growth Cone Collapse,” J. Neurobiol. 33:316-328 (1997), which is hereby incorporated by reference in its entirety). All pharmacological agents were bath-applied 30 min before experiments were performed unless otherwise indicated. Agonist and antagonists were purchased from Calbiochem, Peptide Institute, Sigma, and Tocris.

[5] = tested on: MAP2-positive dendrites of Xenopus spinal cord; assay: Whole-mount MAP2 immunohistochemistry of spinal cords (dendrite identity in vivo); set-up: species or system Xenopus laevis; details: for MAP2-IR in the MO-injected side of spinal cords: stage 42, compared to the uninjected side
[6] = tested on: tau-1-positive axons of Xenopus spinal cord; set-up: species or system Xenopus laevis; details: in vivo
[7] = tested on: putative CINs of Xenopus spinal cord; assay: Imaging of individual spinal neurons (Texas Red dextran) in MO-injected spinal cords; format: in vivo, Xenopus laevis; details: stage 42 tadpole spinal cords
[8] = tested on: MAP2 to tau-1 ratio in Xenopus spinal cords; set-up: species or system Xenopus laevis; details: in vivo
[9] = tested on: xSema3A; assay: Whole-mount immunostaining of xSema3A expression in spinal cords; details: stage 30-32 spinal cords
[10] = injected into hindbrain and spinal cord of stage 30-32 tailbuds
[11] = xSema3A-A-MO in one side of spinal cords
[12] = xSCINs cultured on laminin, treated for three hours

C[C@@H]1C[C@@H]([C@H](O)CC2CC(=O)NC(=O)C2)C(=O)[C@@H](C)C1 [cycloheximide]
Rp-8-pCPT-cGMPS-induced Cav2.3 currents in the presence of the agent [1]: eliminated | expression of xCav2.3α1E after local administration ([2]; in vivo): eliminated | Sema3A-induced expression of Cav2.3 in vitro after pre-treatment [3]: eliminated

ω-conotoxin GVIA
Sema3A-induced conversion of tau-1-positive axons to MAP2-positive dendrites in the presence of the agent [4]: neither L-types (nimodipine) nor N-types (ω-conotoxin GVIA) prevented the conversion | MAP2-IR / dendrite formation after local administration ([5]; in vivo): no significant effect | tau-1-IR after local administration into the spinal cord [6]: neither nimodipine (FIG. 6F and bottom panel, labeled f; FIG. 6G) nor w-conotoxin GVIA (FIG. 6G) had significant effect

Nc1nc2c(nc(Br)n2[C@@H]2O[C@@H]3COP(=O)(O)O[C@H]3[C@H]2O)c(=O)[nH]1 [8-Br-cGMP]
MAP2-IR / dendrite formation after local administration [5, 10]: enhanced | rescue of dendrites in the absence of xCav2.3 ([5]; local administration, xCav2.3α1E-A-MO (FIG. 15N)): failed to rescue dendrites | expression of xCav2.3α1E after local administration [2, 10]: enhanced | expression of xCav2.3α1E after local administration in the absence of Sema3A [2, 11]: induced the expression of xCav2

Nc1nc2c(nc(Sc3ccc(Cl)cc3)n2[C@@H]2O[C@@H]3CO[P@@](=O)(S)O[C@H]3[C@H]2O)c(=O)[nH]1 [Rp-8-pCPT-cGMPS]
Cav2.3 currents induced by a gradient of the agent alone [1]: induced Cav2.3 currents | Sema3A-induced Cav2.3 currents in the presence of the agent [1]: pre-empted | MAP2-IR / dendrite formation after local administration ([5]; in vivo): drastically reduced | appearance of dendrites in the presence of the xCav2.3 ([5]; in vivo): prevented the appearance of dendrites | expression of xCav2.3α1E after local administration ([2]; in vivo): significant increase | expression of xCav2.3α1E after local administration in the absence of Sema3A ([2]; in vivo): induced the expression of xCav2

xCav2.3α1E-A-MO: antisense morpholino oligonucleotide against xCav2.3α1E mRNA (SEQ ID NO: 7) (antisense CTATGTGATATGATTATTTATGACC; all phosphorodiamidate morpholino (PMO))
MAP2-IR in the MO-injected side of spinal cords [5]: significantly reduced | tau-1-IR in the MO-injected side of the spinal cords [6]: significant increase | neurites of individual putative CINs in the MO-treated side [7]: multiple axon-like neurites

O=c1onc2cnc3ccccc3n12 [ODQ, 1H-[1,2,4]oxadiazolo[4,3-a]quinoxalin-1-one]
Rp-8-pCPT-cGMPS-induced Cav2.3 currents in the presence of the agent ([1]; agent as pretreatment / in the bath): not affected | Sema3A-induced Cav2.3 currents in the presence of the agent ([1]; gradient of Sema3A on xSCIN growth cones, agent added): prevented | MAP2-IR / dendrite formation after local administration [5, 10]: abolished | appearance of dendrites in the presence of the xCav2.3 ([5]; local administration, A-MO in one side of spinal cords (FIGS. 15L, 15M)): prevented the appearance of dendrites | expression of xCav2.3α1E after local administration [2, 10]: abolished | expression of xCav2.3α1E after local administration in the absence of Sema3A [2, 11]: significant reduction

Netrin-1: another secreted factor that effects axon initiation in C. elegans
MAP2-IR [4, 12]: no significant effect | tau-1 immunoreactivity (IR) [4, 12]: no significant effect

SNX-482 (GVDKAGCRYMFGGCSVNDDCCPRLGCHSLFSYCAWDLTFSD)
Sema3A-induced Cav2.3 currents in the presence of the agent [1]: abolished | Sema3A-induced conversion of tau-1-positive axons to MAP2-positive dendrites in the presence of the agent [4]: prevented | MAP2-positive dendrites after local administration, 45 μM ([5]; in vivo): eliminated almost all dendrites | MAP2-positive dendrites after local administration, lower doses ([5]; in vivo): significant reductions | tau-1-IR after local administration into the spinal cord [6]: significant increase | ratio of MAP2 to tau-1 in total protein extracted from spinal cords [8]: significantly lower

SNP-1: the soluble Npn-1 ectodomain peptide that sequesters Sema3A
Sema3A-induced conversion of tau-1-positive axons to MAP2-positive dendrites in the presence of the agent ([4]; agent bath-applied with Sema3A): prevented

COCCOC(=O)C1=C(C)NC(C)=C(C(=O)OC(C)C)C1c1cccc([N+](=O)[O-])c1 (centres unmarked) [nimodipine]
MAP2-IR / dendrite formation after local administration ([5]; in vivo): no significant effect

xSema3A-A-MO: antisense morpholino oligonucleotide against xSema3A mRNA (SEQ ID NO: 8) (antisense ATGCAATCCAGGTCAGAGAGCCCAT; all phosphorodiamidate morpholino (PMO))
MAP2-IR in the MO-injected side of spinal cords [5]: significantly reduced | expression of xCav2.3α1E in the MO-injected side ([2]; stage 34): reduced markedly | expression of xSema3A in the MO-injected side [9]: reduced significantly
